Source: patent publication US20160185820A1, “PRO[…], A GENE TRANSFER ENHANCER” (PHARIS BIOTEC GMBH, priority 2013, published 2016)
Non-standard residues stand in square brackets, D forms with d. Residues, ends and D or L forms follow the SMILES beside them. No end group written: not given here. pGlu = O=C1CC[C@@H](C(=O)O)N1

What was measured:
[1] = Storage stability in aqueous solution (HPLC chromatogram, FIG. 1); format: physicochemical; details: storage at 4° C. for 13 days
Description: In the left column of FIG. 1 (HPLC chromatogram), results for protransduzin A upon storage for 0-13 days at −20° C. and at 4° C. (13 days) are compared with the results for protransduzin B under the same conditions.

cells = test: Transduction of cells with protransduzin B; format: cell-based; details: 25 μg/ml protransduzin B, cells incubated 2 days
Description: Dissolve 0.5 mg of protransduzin B in 50 μl of DMSO. Then add 450 μl of PBS to the solution, fibrils forming within 3 min. Add this stock solution (1 mg/ml) to the vectors to obtain a concentration of protransduzin B of 25 μg/ml. Vortex the solution for 1 min, then centrifuge with 5000 g for 5 min. The supernatant is discarded, and the pellet is suspended in a little PBS and added to the cells. The cells are incubated in an incubator for 2 days.

| Molecule | degradation upon storage (HPLC peak height) [1] | cells transduced (cells) | transduction rate (cells) |
| --- | --- | --- | --- |
| CC[C@H](C)[C@H](NC(=O)[C@H](CCCCN)NC(=O)[C@H](CS)NC(=O)[C@@H]1CCC(=O)N1)C(=O)N[C@@H](CCCCN)C(=O)N[C@@H](CCC(N)=O)C(=O)N[C@H](C(=O)N[C@H](C(=O)N[C@@H](CC(N)=O)C(=O)N[C@@H](CCSC)C(=O)N[C@@H](Cc1c[nH]c2ccccc12)C(=O)N[C@@H](CCC(N)=O)C(=O)O)[C@@H](C)CC)[C@@H](C)CC [protransduzin B] ([pGlu]CKIKQIINMWQ-OH) | hardly degraded at all | Up to 96% | significantly enhanced |
| QCKIKQIINMWQ [protransduzin A, reference compound] | degraded almost to one half | – | – |
